“Also recorded” adds a separate entry of the source. Ends that are not written are not given here.
Legend:
[1] = system: subcutaneous xenograft models of breast and pancreatic cancers; test: Subcutaneous xenograft models in nude mice, tumor growth; type: in vivo; settings: for anticancer effect on tumor growth in vivo: single agent, mouse xenograft
Excerpt: (§1) Furthermore, these compounds sensitized the cancer cells to chemotherapy. […] See, FIGS. 3-14.

VEGFR-3 = target: T1, VEGFR-3 (Homo sapiens, UniProt P35916); test: VEGFR-3 dephosphorylation in cells; type: cell-based
T1 construct: expressed in transfected cells
T1 sequence (P35916 25-1363): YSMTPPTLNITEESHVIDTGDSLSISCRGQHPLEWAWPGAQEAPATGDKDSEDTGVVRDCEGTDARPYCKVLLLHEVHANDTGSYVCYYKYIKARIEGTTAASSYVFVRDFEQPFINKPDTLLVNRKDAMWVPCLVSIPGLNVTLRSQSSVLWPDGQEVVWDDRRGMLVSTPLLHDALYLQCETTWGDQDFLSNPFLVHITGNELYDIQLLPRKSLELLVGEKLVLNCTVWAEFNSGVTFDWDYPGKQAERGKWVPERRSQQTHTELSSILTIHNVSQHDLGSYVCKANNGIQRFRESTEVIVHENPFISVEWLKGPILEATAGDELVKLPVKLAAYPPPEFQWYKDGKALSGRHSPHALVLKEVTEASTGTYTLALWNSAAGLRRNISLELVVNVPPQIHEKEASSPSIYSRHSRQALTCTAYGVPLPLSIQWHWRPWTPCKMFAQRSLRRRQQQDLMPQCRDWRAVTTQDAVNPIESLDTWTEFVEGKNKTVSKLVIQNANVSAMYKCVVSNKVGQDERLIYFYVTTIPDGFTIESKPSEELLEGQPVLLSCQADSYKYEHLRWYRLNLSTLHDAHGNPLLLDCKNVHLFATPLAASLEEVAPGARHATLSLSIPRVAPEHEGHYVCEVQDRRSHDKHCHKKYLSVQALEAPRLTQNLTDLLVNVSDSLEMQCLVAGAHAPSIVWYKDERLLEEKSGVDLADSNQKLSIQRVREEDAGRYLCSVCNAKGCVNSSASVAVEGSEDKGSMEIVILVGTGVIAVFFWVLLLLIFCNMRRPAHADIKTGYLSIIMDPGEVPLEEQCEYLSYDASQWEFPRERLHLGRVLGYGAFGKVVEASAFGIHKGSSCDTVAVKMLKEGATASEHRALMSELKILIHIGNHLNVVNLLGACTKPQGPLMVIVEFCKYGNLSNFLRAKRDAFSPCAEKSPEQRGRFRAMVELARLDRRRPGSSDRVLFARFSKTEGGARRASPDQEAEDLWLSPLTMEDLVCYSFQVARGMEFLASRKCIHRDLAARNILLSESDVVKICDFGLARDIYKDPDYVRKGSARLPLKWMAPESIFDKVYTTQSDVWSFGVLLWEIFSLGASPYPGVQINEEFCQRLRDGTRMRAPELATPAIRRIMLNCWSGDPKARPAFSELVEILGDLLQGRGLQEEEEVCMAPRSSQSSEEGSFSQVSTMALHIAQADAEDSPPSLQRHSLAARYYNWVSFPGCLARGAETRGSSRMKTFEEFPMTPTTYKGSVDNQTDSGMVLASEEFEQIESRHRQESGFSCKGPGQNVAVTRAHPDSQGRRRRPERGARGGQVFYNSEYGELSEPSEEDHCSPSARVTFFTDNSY

[2] = system: MCF7 control clone transfected with the vector pcDNA3; test: Viability of control MCF7 clone transfected with vector pcDNA3; type: cell-based, human; settings: 1 mM
cancer cells [3] = test: Cell cycle and apoptosis of cancer cells; type: cell-based, human
Procedure: Cell-based assays. Selected small molecules are evaluated in cell-based proliferation and apoptosis assays in model system of BT474 and MCF7 breast cancer cells and normal MCF10 cells. Other cells lines relevant for study are MiaPaCa-2 and PANC-1 (pancreatic cancer), A375 (melanoma), A549 (lung cancer), HT29 and COLO5 (colon cancer), SAOS (osteosarcoma), HCT116 p53(-/-) and HCT116 p53(+/+) (colon cancer) and […] (melanoma). The multiplex approach to analyze more than one parameter from the same culture well is used. The CellTiter-Blue Cell Viability Assay (Promega). CellTiter-Blue Reagent is added directly to each well (20μ reagent to each 100μ of medium in 96-well format), the plates are incubated at 37° C., and the fluorescent signal is measured (560Ex/590Em). This test can be combined with additional assays. The caspase activity is measured in the same wells by adding 120μ of the Apo-ONE Homogeneous […]-3/7 Assay Reagent (Promega). Cells are incubated for an additional hour at ambient temperature prior to recording fluorescence (485Ex/527Em);

[4] = system: cancer cells, including breast, colon, pancreatic, melanoma, lung, osteosarcoma; test: Cancer cell viability and proliferation assays (CellTiter 96, CellTiter-Blue, MTT); type: cell-based, human
Procedure: Cell-based assays. Selected small molecules are evaluated in cell-based proliferation and apoptosis assays in model system of BT474 and MCF7 breast cancer cells and normal MCF10 cells. Other cells lines relevant for study are MiaPaCa-2 and PANC-1 (pancreatic cancer), A375 (melanoma), A549 (lung cancer), HT29 and COLO5 (colon cancer), SAOS (osteosarcoma), HCT116 p53(−/−) and HCT116 p53(+/+) (colon cancer) and C8186 (melanoma). The multiplex approach to analyze more than one parameter from the same culture well is used.
CellTiter 96 Aqueous One Solution Cell Proliferation Assay (Promega). The assay is performed by adding a small amount of the One Solution Reagent directly to culture wells, incubating for 1-4 hours and then recording absorbance at 490 nm with a spectrophotometric plate reader. The quantity of formazan product as measured by the amount of 490 nm absorbance is directly proportional to the number of living cells in culture;
The CellTiter-Blue Cell Viability Assay (Promega). CellTiter-Blue Reagent is added directly to each well (20μ reagent to each 100μ of medium in 96-well format), the plates are incubated at 37° C., and the fluorescent signal is measured (560Ex/590Em). This test can be combined with additional assays. The caspase activity is measured in the same wells by adding 120μ of the Apo-ONE Homogeneous Caspace-3/7 Assay Reagent (Promega). […]

cancer cells [5] = test: Motility and invasiveness of cancer cells; type: cell-based
cancer cells [6] = test: Dual treatment of cancer cells with C4 and chemotherapeutic drugs; type: cell-based, human
Excerpt: FIG. 1.9. Dual treatment of cancer cells with C4 compound and chemotherapeutic drugs. […] Concentrations correspond to IC50 cell-specific concentration for all used drugs.

[7] = system: MCF7 cells overexpressing wt VEGFR3; test: Viability of stable clone overexpressing wt VEGFR3 in MCF7 cells; type: cell-based, human; settings: 1 mM
FAK = target: T2, FAK (Homo sapiens, UniProt Q05397); test: FAK dephosphorylation in cells; type: cell-based
T2 construct: specific displacement of FAK from the focal adhesions of the tumor cells; endogenous in cells; host or cells: tumor cells; BT474 named for the focal adhesion staining
T2 sequence (Q05397 whole entry): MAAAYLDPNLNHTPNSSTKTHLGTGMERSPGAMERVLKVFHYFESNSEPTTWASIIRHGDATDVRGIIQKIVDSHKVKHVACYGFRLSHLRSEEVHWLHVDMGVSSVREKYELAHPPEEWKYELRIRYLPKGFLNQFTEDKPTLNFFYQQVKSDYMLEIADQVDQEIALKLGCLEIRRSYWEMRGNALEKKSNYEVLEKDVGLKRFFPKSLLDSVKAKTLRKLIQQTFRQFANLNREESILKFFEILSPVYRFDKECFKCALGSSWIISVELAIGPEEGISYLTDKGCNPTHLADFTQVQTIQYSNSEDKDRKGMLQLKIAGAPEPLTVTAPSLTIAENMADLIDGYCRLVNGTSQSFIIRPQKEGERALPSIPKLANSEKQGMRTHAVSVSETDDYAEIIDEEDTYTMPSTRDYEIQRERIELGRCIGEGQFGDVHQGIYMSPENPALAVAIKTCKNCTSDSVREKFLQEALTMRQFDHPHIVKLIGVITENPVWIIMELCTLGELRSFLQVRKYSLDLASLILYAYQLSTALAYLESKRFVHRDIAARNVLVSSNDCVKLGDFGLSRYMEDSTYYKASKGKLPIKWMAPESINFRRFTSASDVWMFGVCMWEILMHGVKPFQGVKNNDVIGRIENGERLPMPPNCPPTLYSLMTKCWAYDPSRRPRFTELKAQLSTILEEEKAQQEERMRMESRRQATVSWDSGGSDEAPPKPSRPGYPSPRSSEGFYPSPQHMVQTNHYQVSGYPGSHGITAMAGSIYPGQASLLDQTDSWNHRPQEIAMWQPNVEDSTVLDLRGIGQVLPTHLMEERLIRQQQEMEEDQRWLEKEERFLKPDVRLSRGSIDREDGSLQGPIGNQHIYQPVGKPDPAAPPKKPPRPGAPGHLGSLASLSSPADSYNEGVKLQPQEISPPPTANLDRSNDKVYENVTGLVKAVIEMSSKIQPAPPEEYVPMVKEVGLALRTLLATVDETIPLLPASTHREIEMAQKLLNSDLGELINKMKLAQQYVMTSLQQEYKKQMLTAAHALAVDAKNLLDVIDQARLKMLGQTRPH
Procedure: (§2) Measurement of FAK-specific effect. The readout of a FAK-specific effect of selected in silico small molecules is specific displacement of FAK from the focal adhesions of the tumor cells. Tumor cells are doubly stained with FAK and paxillin using dual color techniques and extensive biochemical analyses of effects on FAK signaling are performed, essentially as previously published. See, Garces, C. A., et al., Vascular Endothelial Growth Factor Receptor-3 and Focal Adhesion Kinase Bind and Suppress Apoptosis in Breast Cancer Cells. Cancer Res % R 10.1158/0008-5472.CAN-05-1661, 2006. 66(3): p. 1446-1454; Xu, L.-h., et al., The focal adhesion kinase suppresses transformation-associated, anchorage-Independent apoptosis in human breast cancer cells. J. Biol. Chem., 2000. 275: p. 30597-30604; Kurenova, E., et al., Focal Adhesion Kinase Suppresses Apoptosis by Binding to the Death Domain of Receptor-Interacting Protein. Mol. Cell. Biol., 2004. 24(10): p. 4361-4371.

[8] = target: T3, FAK and VEGFR-3 interaction (Homo sapiens, UniProt Q05397); test: FAK and VEGFR-3 interaction and colocalization (immunofluorescence confocal microscopy, FRET); type: cell-based; settings: for colocalization of FAK and VEGFR-3 in the cells: confocal microscopy
T3 construct: endogenous in cells; BT474 for the FAK/VEGFR-3 staining
T3 sequence (Q05397 2-1052 limits assumed): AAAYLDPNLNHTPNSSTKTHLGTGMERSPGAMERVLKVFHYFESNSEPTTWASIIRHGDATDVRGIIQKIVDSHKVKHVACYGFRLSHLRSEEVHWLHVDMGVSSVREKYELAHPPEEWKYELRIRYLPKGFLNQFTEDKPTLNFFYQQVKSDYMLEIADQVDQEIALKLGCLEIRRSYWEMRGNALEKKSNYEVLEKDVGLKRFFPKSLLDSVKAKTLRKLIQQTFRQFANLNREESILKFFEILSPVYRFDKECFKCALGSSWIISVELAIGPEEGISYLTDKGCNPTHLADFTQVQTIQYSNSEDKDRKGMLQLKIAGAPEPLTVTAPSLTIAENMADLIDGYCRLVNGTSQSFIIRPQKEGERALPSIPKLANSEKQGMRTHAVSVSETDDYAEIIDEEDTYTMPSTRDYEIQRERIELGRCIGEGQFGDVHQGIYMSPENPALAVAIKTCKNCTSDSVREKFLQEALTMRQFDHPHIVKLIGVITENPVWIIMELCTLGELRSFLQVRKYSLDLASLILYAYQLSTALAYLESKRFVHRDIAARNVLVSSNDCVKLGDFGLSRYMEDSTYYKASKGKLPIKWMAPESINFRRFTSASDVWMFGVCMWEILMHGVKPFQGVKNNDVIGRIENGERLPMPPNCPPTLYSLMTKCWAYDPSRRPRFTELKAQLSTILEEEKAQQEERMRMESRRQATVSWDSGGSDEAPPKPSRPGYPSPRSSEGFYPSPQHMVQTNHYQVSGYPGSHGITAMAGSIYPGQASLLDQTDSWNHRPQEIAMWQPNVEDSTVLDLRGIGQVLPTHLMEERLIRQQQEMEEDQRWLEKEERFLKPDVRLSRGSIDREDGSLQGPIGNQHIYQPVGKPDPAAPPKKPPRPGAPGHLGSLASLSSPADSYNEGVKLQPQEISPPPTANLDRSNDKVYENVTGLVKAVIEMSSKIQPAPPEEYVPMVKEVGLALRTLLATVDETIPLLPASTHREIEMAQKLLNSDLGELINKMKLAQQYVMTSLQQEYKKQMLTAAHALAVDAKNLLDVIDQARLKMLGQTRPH
Procedure: as §1
(§3) FIG. 1.3. […] FAK and VEGFR-3 in BT474 cells were stained for FAK with a Texas Red-conjugated secondary antibody and VEGFR-3 with a Alexa Fluor 488-conjugated secondary antibody and then viewed with a Leica confocal microscope. After 24 hours of peptide-AV3 (black) treatment, staining was repeated, proliferation was measured by MTT assay, apoptosis was measured by Hoechst staining and TUNEL Assay. Control scrambled peptide-AV3S (white) was also used in all experiments. (FIG. 1.10, STEP 2A).

PARP = PARP down-regulation; type: cell-based
Excerpt: As such, these compounds are useful as therapeutic agents.

[9] = target: T4, FAK in focal adhesions of BT474 cells (Homo sapiens, UniProt Q05397); test: Displacement of FAK from focal adhesions (dual colour staining, confocal microscopy); type: cell-based; settings: 24 hours of peptide treatment
T4 construct: specific displacement of FAK from the focal adhesions of the tumor cells; endogenous in cells; host or cells: tumor cells; BT474 named for the focal adhesion staining
T4 sequence (Q05397 whole entry): as the sequence (Q05397 whole entry) above
Procedure: as §2
as §3, with “Control scrambled peptide-AV3S (white) was also used in all experiments. (FIG. 1.10, STEP 2A).” left out

breast cancer cell lines = test: Peptide effect on proliferation (MTT), detachment and apoptosis (Hoechst, TUNEL) in breast cancer cell lines; type: cell-based, human; settings: 24 hours
Procedure: as §3

In the case of CN(C)CCOC(c1ccccc1)c1ccccc1 [Benadryl, reference compound], the “anticancer effect on tumor growth in vivo” value [1] is reported as “no any anticancer properties”.

For CN(C)CCN(Cc1ccc(Cl)cc1)c1ccccn1 [Compound C4, N′-[(4-chlorophenyl)methyl]-N,N-dimethyl-N′-pyridin-2-yl-ethane-1,2-diamine], the VEGFR-3 phosphorylation (VEGFR-3) was “specifically dephosphorylates FAK and VEGFR-3”, the “dephosphorylation of VEGFR3” value (VEGFR-3; treatment for 24 h with 10 mM compound) was “caused dephosphorylation of VEGFR3” and the “viability of control clone” value [2] was “resistant to this concentration of the drug”. For the same compound, the cell cycle (cancer cells [3]) was “blockage at G1/S cell cycle transition”, the “apoptosis of cancer cells” value (cancer cells [3]; in vitro) was “apoptosis of cancer cells; also recorded: causes apoptosis in pancreatic and breast cancer cells in vitro” and the cell proliferation [4] was “delay in cell proliferation”. The “viability of cancer cells” value ([4]; in vitro) was “decreases viability of many different types of cancer cells”, the “motility and invasiveness of cancer cells” value (cancer cells [5]) was “reduces motility and invasiveness of cancer cells” and the “reduction of tumor growth in comparison with nontreated tumors” value ([1]; 60 mg/kg, daily intraperitoneal injections, nude mice) was “up to 75%”. For the same compound, the “tumor growth after treatment withdrawal” value ([1]; C4 combined with Gemcitabine, pancreatic tumor) was “prolonged cytostatic effect on pancreatic tumor growth after treatment withdrawal”, the “anticancer effect in combination with Gemcitabine” value ([1]; C4 combined with Gemcitabine, versus each drug separately) was “much stronger anticancer effect than each of the drugs separately” and the “tumor growth compared with doxorubicin” value ([1]; breast cancer) was “decreases tumor growth better than doxorubicin”. For the same compound, the “anticancer effect on tumor growth in vivo” value [1] was “strong anticancer effect; also recorded: reduces tumor growth in vivo in mouse model of breast cancer and pancreatic cancer”, the “effect of dual treatment with doxorubicin” value (cancer cells [6]; C4 combined with doxorubicin, IC50 cell-specific concentrations) was “At least additive effect is very pronounced” and the “cell viability in combination with chemotherapy (sensitization)” value (cancer cells [6]; in combination with Doxorubicin and Gemcitabine, in vitro) was “improved effect on decrease of cells viability; also recorded: sensitizes pancreatic cancer and breast cancer cells to chemotherapy treatment in vitro”. For the same compound, the “viability of VEGFR3 clone” value [7] was “reproducible decrease in viability”, the FAK phosphorylation (FAK) was “specifically dephosphorylates FAK and VEGFR-3” and the “FAK and VEGFR-3 interaction” value [8] was “disrupts their interaction”. The “colocalization of FAK and VEGFR-3 in the cells” value [8] was “decrease in their colocalization in the cells”.

For COC(=O)Nc1nc2ccc(C(=O)C3CC3)cc2[nH]1 [Compound D4, methyl N-[5-(cyclopropanecarbonyl)-3H-benzoimidazol-2-yl]carbamate], the “phosphorylation of Y397” value (FAK) was “cause de-phosphorylation of Y397” and the PARP level (PARP) was “causes PARP down-regulation”.

Cc1cc(C)nc(Nc2nc3cc([N+](=O)[O-])ccc3[nH]2)n1 [Compound D5, (4,6-Dimethyl-pyrimidin-2-yl)-(5-nitro-1H-benzoimidazol-2-yl)-amine] was tested, and the “phosphorylation of Y397” value (FAK) was “cause de-phosphorylation of Y397”.

COc1ccc(NC(=O)Nc2cc(Cl)ccc2OC)c(Cl)c1 [Compound D6, 1-(2-chloro-4-methoxy-phenyl)-3-(5-chloro-2-methoxy-phenyl) urea] was tested, and the “phosphorylation of Y397” value (FAK) was “cause de-phosphorylation of Y397”.

With “WHWRPWTPCKMF (also: TAT penetration sequence coupled for cell tests) [peptide-AV3]” the “displacement of FAK from the focal adhesions” value [9] was “caused specific displacement of FAK from the focal adhesions”, the “displacement of FAK from the focal adhesions” value ([9]; listed as Peptide-AV3) was “causes specific displacement of FAK from the focal adhesions” and the “cell detachment in breast cancer cell lines” value (breast cancer cell lines) was “caused cell detachment”. The “cell detachment in breast cancer cell lines” value (breast cancer cell lines; listed as Peptide-AV3) was “increased detachment”, the “apoptosis in breast cancer cell lines” value (breast cancer cell lines; Hoechst staining and TUNEL) was “apoptosis” and the “proliferation of breast cancer cell lines” value (breast cancer cell lines; MTT) was “decreased proliferation”. The “colocalization of FAK and VEGFR-3 in the cells” value [8] was “affected co-localization of FAK and VEGFR-3; also recorded: affected colocalization of FAK and VEGFR-3”.

Reference: patent US8404669B2, “Kinase modulating compounds and uses thereof for treatment of cancer” (University of Florida Research Foundation, Inc., priority 2007, dated 2013)
